Measurements published in paper PMC6270994, “The Hydractinia echinata Test-System. III: Structure-Toxicity Relationship Study of Some Azo-, Azo-Anilide, and Diazonium Salt Derivatives” (Molecules, 2014).

Test system: Hydractinia echinata
Experiment: Hydractinia echinata test system (HeTS): reduction of Cs+-induced metamorphosis of larvae
Assay type: in vivo
Settings: Hydractinia echinata; MRC50 in mol/L = concentration for 50% decrease of metamorphosis vs control; larvae exposed 3 h with Cs+, read after 24 h; read-out: M: experimental Mlog(1/MRC50) (converted)
Experimental: The average (C) concentrations of these values were calculated too. The MRC50 value calculations (Chicu et al.) result from the graphical representation of the metamorphosis variation, M (%), (Y axis) function of the xenobiotic’s concentration (mol/L) (X axis), where the metamorphosis decreases with the rise of the xenobiotic’s concentration. Thus, the MRC50 value represents the xenobiotic’s concentration (mol/L) necessary for a 50% decrease of metamorphosis, with respect to control.
For each concentration of substance experiments were performed in triplicate and were repeated at least twice.
Colonies of H. echinata (Biologische Anstalt, Helgoland, Germany) were used to obtain eggs and larvae. The culture medium was artificial seawater (980 mosmol, pH 8.2, 18 °C). In laboratory an artificial metamorphosis can be synchronically started by the introduction of Cs^+ ions or by using seawater without Mg^2+ ions; it then lasts only 24 h. Under the action of external stimulus of Cs^+ ions or Cs^+ ions together with the tested compounds, one part of larvae further lives as such and another one is metamorphosized to the polyp form. The evaluation of the influence of the tested substance is very clear this way, the proposed method being based on this aspect.
H. echinata larvae were exposed to seawater containing Cs^+ and simultaneously one of the test substances for 3 h. The percentage of animals that underwent metamorphosis (development into polyps) was determined after 24 h. […] We chose a concentration of inducers which caused about […] to three quarters of the larvae to metamorphose in order to have conditions which are highly sensitive against an inhibitory influence. […] This concentration was termed MRC50 (for Metamorphosis Reduction Concentration) and is similar to the effective EC50 concentration that gives half maximal effective response.

Q: With `Nc1ccc2cc(S(=O)(=O)O)c(N=Nc3ccc(NC(=O)c4ccc(N=Nc5c(S(=O)(=O)O)cc6cc(S(=O)(=O)O)cc(N)c6c5O)cc4)cc3)c(O)c2c1` [Compound 111, 5-Amino-3-{2-[4-({4-[2-(7-amino-1-hydroxy-3-sulfonaphthalen-2-yl)diazen-1-yl]phenyl}-carbamoyl)phenyl]diazen-1-yl}-4-hydroxy-naphthalene-2,7-disulfonic acid] as the compound, how does the EC50 read?
A: Its EC50 is 263 µM.

Q: For `COc1ccc(N=Nc2ccccc2)cc1` [Compound 1, (4-Methoxyphenyl) (phenyl)diazene], which EC50 is on record?
A: The EC50 was 6.31 µM.

Q: For `O=C(O)c1ccc(N=Nc2ccccc2)cc1` [Compound 2, 4-(2-Phenyldiazen-1-yl)benzoic acid], which EC50 is on record?
A: Its EC50 is 214 µM.

Q: `O=C(Nc1ccc(/N=N/c2ccc(C(=O)O)c(O)c2)cc1)c1ccc(/N=N/c2ccccc2O)cc1` [Compound 104, 2-Hydroxy-4-[(E)-2-(4-{4-[(E)-2-(2-hydroxy-phenyl)diazen-1-yl]-benzamido}phenyl)-diazen-1-yl]benzoic acid] was tested. Which EC50 did it give?
A: Its EC50 is 30.2 µM.

Q: `O=S(=O)(O)c1cc(/N=N/c2ccc(O)cc2O)ccc1/C=C/c1ccc(/N=N/c2ccc(O)cc2O)cc1S(=O)(=O)O` [Compound 97, 5-[(E)-2-(2,4-Dihydroxyphenyl)-diazen-1-yl]-2-[(E)-2-{4-[(E)-2-(2,4-dihydroxyphenyl)-diazen-1-yl]-2-sulfophenyl}ethenyl]-benzene-1-sulfonic acid] was tested. Which EC50 did it give?
A: Its EC50 is 186 µM.

Q: With `Nc1ccc(N=Nc2ccc(NC(=O)c3ccc(N=Nc4c(S(=O)(=O)O)cc5cc(S(=O)(=O)O)c(N=Nc6ccccc6)c(O)c5c4N)cc3)cc2)c(N)c1` [Compound 116, 4-Amino-3-{2-[4-({4-[2-(2,4-diamino-phenyl)diazen-1-yl]phenyl}carbamoyl)-phenyl]diazen-1-yl}-5-hydroxy-6-(2-phenyl-diazen-1-yl)-naphthalene-2,7-disulfonic acid] as the compound, how does the EC50 read?
A: The EC50 was 166 µM.

Q: With `Nc1c(N=Nc2ccc([N+](=O)[O-])cc2C(=O)O)c(S(=O)(=O)O)cc2cc(S(=O)(=O)O)c(N=Nc3ccc(NC(=O)c4ccc(N=Nc5ccc(O)c(C(=O)O)c5)cc4)cc3)c(O)c12` [Compound 114, 5-[2-(4-{[4-(2-{8-Amino-7-[2-(2-carboxy-4-nitrophenyl)diazen-1-yl]-1-hydroxy-3,6-disulfonaphthalen-2-yl}diazen-1-yl)phenyl]-carbamoyl}phenyl)-diazen-1-yl]-2-hydroxybenzoic acid] as the compound, how does the EC50 read?
A: Its EC50 is 129 µM.

Q: Which EC50 does the source give for `O=C(Nc1ccc(N=Nc2ccc(O)c(C(=O)Nc3ccccc3)c2)cc1)c1ccc(N=Nc2ccc(O)c(C(=O)Nc3ccccc3)c2)cc1` [Compound 117, 2-Hydroxy-5-{2-[4-(4-{2-[4-hydroxy-3-(phenylcarbamoyl)phenyl]diazen-1-yl}-benzamido)phenyl]-diazen-1-yl}-N-phenylbenzamide] here?
A: Its EC50 is 166 µM.

Q: Which EC50 does the source give for `CCN(CC)c1ccc(N=Nc2ccc(C(=O)O)cc2)cc1` [Compound 6, 4-{2-[4-(Diethylamino)phenyl]diazen-1-yl}benzoic acid] here?
A: The EC50 was 17 µM.

Q: How did the EC50 turn out when `O=C(Nc1ccc(N=Nc2c(S(=O)(=O)O)cc3cc(NC(=O)c4ccccc4)ccc3c2O)cc1)c1ccc(N=Nc2ccc(O)c(C(=O)Nc3ccccc3)c2)cc1` [Compound 118, 7-Benzamido-4-hydroxy-3-{2-[4-(4-{2-[4-hydroxy-3-(phenyl-carbamoyl)phenyl]diazen-1-yl}benzamido)-phenyl]diazen-1-yl}naphthalene-2-sulfonic acid] was run?
A: Its EC50 is 224 µM.

Q: With `Nc1ccc2c(O)c(N=Nc3ccc(NC(=O)c4ccc(N=Nc5ccc(O)c(C(=O)O)c5)cc4)cc3)c(S(=O)(=O)O)cc2c1` [Compound 107, 5-{2-[4-({4-[2-(6-Amino-1-hydroxy-3-sulfonaphthalen-2-yl)diazen-1-yl]-phenyl}carbamoyl)-phenyl]diazen-1-yl}-2-hydroxybenzoic acid] as the compound, how does the EC50 read?
A: Its EC50 is 219 µM.

Q: With `C=C(O)c1cc([N+](=O)[O-])ccc1N=Nc1c(N)ccc2c(O)c(N=Nc3ccc(NC(=O)c4ccc(N=Nc5ccc(O)c(C(=O)O)c5)cc4)cc3)c(S(=O)(=O)O)cc12` [Compound 115, 5-{2-[4-({4-[2-(6-Amino-1-hydroxy-5-{2-[2-(1-hydroxy-ethenyl)-4-nitro-phenyl]diazen-1-yl}-3-sulfonaphthalen-2-yl)diazen-1-yl]phenyl}-carbamoyl)phenyl]-diazen-1-yl}-2-hydroxybenzoic acid] as the compound, how does the EC50 read?
A: Its EC50 is 138 µM.

Q: With `O=C(Nc1ccc(N=Nc2c(O)c(S(=O)(=O)O)cc3cc(S(=O)(=O)O)ccc23)cc1)c1ccc(N=Nc2ccc(O)c(C(=O)Nc3ccccc3)c2)cc1` [Compound 127, 3-Hydroxy-4-{2-[4-(4-{2-[4-hydroxy-3-(phenylcarbamoyl)phenyl]diazen-1-yl}-benzamido)phenyl]-diazen-1-yl}-naphthalene-2,7-disulfonic acid] as the compound, how does the EC50 read?
A: The EC50 was 58.9 µM.

Same assay, conditions: Hydractinia echinata; parent dye, Table 2; read-out: F(1+2+...)e experimental toxicity log(1/MRC50) (converted)

Q: How did the EC50 turn out when `COc1ccc(N=Nc2ccccc2)cc1` [Compound 1, (4-Methoxyphenyl) (phenyl)diazene] was run?
A: Its EC50 is 6.31 µM.

Q: With `O=C(O)c1ccc(N=Nc2ccccc2)cc1` [Compound 2, 4-(2-Phenyldiazen-1-yl)benzoic acid] as the compound, how does the EC50 read?
A: Its EC50 is 214 µM.

Q: For `O=C(Nc1ccc(/N=N/c2ccc(C(=O)O)c(O)c2)cc1)c1ccc(/N=N/c2ccccc2O)cc1` [Compound 104, 2-Hydroxy-4-[(E)-2-(4-{4-[(E)-2-(2-hydroxy-phenyl)diazen-1-yl]-benzamido}phenyl)-diazen-1-yl]benzoic acid], which EC50 is on record?
A: Its EC50 is 30.2 µM.

Q: `O=S(=O)(O)c1cc(/N=N/c2ccc(O)cc2O)ccc1/C=C/c1ccc(/N=N/c2ccc(O)cc2O)cc1S(=O)(=O)O` [Compound 97, 5-[(E)-2-(2,4-Dihydroxyphenyl)-diazen-1-yl]-2-[(E)-2-{4-[(E)-2-(2,4-dihydroxyphenyl)-diazen-1-yl]-2-sulfophenyl}ethenyl]-benzene-1-sulfonic acid] was tested. Which EC50 did it give?
A: Its EC50 is 186 µM.

Q: For `O=C(Nc1ccc(N=Nc2ccc(O)c(C(=O)Nc3ccccc3)c2)cc1)c1ccc(N=Nc2ccc(O)c(C(=O)Nc3ccccc3)c2)cc1` [Compound 117, 2-Hydroxy-5-{2-[4-(4-{2-[4-hydroxy-3-(phenylcarbamoyl)phenyl]diazen-1-yl}-benzamido)phenyl]-diazen-1-yl}-N-phenylbenzamide], which EC50 is on record?
A: The EC50 was 166 µM.

Same assay, conditions: Hydractinia echinata; product of enzymatic reduction/hydrolysis of the dye; read-out: F(1), F(2),... individual log(1/MRC50) toxicity value (converted)

Q: With `Nc1ccc(C(=O)O)cc1` [APAB, p-aminobenzoic acid] as the compound, how does the EC50 read?
A: The EC50 was 457 µM.

Same assay, conditions: MRC50 in mol/L = concentration for 50% decrease of metamorphosis vs control; larvae exposed 3 h with Cs+, read after 24 h

Q: `O=[N+]([O-])c1ccc2c(N=Nc3ccc4ccccc4c3O)c(O)cc(S(=O)(=O)[O-])c2c1.[Na+]` [Compound 58, Eriochrom Black T] was tested. Which “M: experimental Mlog(1/MRC50)” value did it give?
A: The value was 4.13.

Q: For `O=S(=O)([O-])c1cc(N=Nc2c(O)ccc3ccccc23)ccc1-c1ccc(N=Nc2c(O)ccc3ccccc23)cc1S(=O)(=O)[O-].[Na+].[Na+]` [Compound 87, Acid Red 97], which “M: experimental Mlog(1/MRC50)” value is on record?
A: Its value is 4.11.

Q: How did the “M: experimental Mlog(1/MRC50)” value turn out when `COc1cc(-c2ccc([N+]#N)c(OC)c2)ccc1[N+]#N` [Compound 94, Fast Blue B] was run?
A: The value was 4.30.

Q: `CC1(C)Nc2cccc3c(N=Nc4ccc(N=Nc5ccccc5)c5ccccc45)ccc(c23)N1` [Compound 80, Sudan Black B (Solvent Black 3)] was tested. Which “M: experimental Mlog(1/MRC50)” value did it give?
A: Its value is 4.20.

Q: For `O=S(=O)([O-])c1ccc2c(N=Nc3ccc(S(=O)(=O)[O-])c4ccccc34)c(O)c(S(=O)(=O)[O-])cc2c1.[Na+].[Na+].[Na+]` [Compound 57, Acid Red 27 (Amaranth, Food Red 9)], which “M: experimental Mlog(1/MRC50)” value is on record?
A: The value was 2.33.

Q: `O=S(=O)([O-])c1cc(Nc2nc(Nc3ccccc3)nc(N(CCO)CCO)n2)ccc1/C=C/c1ccc(Nc2nc(Nc3ccccc3)nc(N(CCO)CCO)n2)cc1S(=O)(=O)[O-].[Na+].[Na+]` [Compound 103, Fluorescent Brightener 28] was tested. Which “M: experimental Mlog(1/MRC50)” value did it give?
A: The value was 3.81.

Q: `CN(C)c1ccc(N=Nc2ccccc2C(=O)[O-])cc1.[Na+]` [Compound 4, Methyl Red (sodium salt)] was tested. Which “M: experimental Mlog(1/MRC50)” value did it give?
A: Its value is 3.79.

Q: For `COc1cc(-c2ccc(N=Nc3c(S(=O)(=O)[O-])cc4cc(S(=O)(=O)[O-])cc(N)c4c3O)c(OC)c2)ccc1N=Nc1c(S(=O)(=O)[O-])cc2cc(S(=O)(=O)[O-])cc(N)c2c1O.[Na+].[Na+].[Na+].[Na+]` [Compound 91, Direct Blue 15 (Aizen Direct Sky Blue 5B)], which “M: experimental Mlog(1/MRC50)” value is on record?
A: The value was 3.69.

Q: How did the “M: experimental Mlog(1/MRC50)” value turn out when `COc1cc(-c2ccc(N=Nc3ccc4c(S(=O)(=O)[O-])cc(S(=O)(=O)[O-])c(N)c4c3O)c(OC)c2)ccc1N=Nc1ccc2c(S(=O)(=O)[O-])cc(S(=O)(=O)[O-])c(N)c2c1O.[Na+].[Na+].[Na+].[Na+]` [Compound 92, Direct Blue 1] was run?
A: Its value is 3.79.

Q: With `O=C(Nc1ccc2c(O)c(N=Nc3ccccc3)c(S(=O)(=O)[O-])cc2c1)Nc1ccc2c(O)c(N=Nc3ccccc3)c(S(=O)(=O)[O-])cc2c1.[Na+].[Na+]` [Compound 129, Direct Brilliant Orange] as the compound, how does the “M: experimental Mlog(1/MRC50)” value read?
A: The value was 3.65.

Q: How did the “M: experimental Mlog(1/MRC50)” value turn out when `O=S(=O)([O-])c1ccc(N=Nc2c(O)ccc3ccccc23)cc1.[Na+]` [Compound 28, Acid Orange 7] was run?
A: The value was 3.17.
